Measured values: publication PMC8069214, “Synthesis, Biological Evaluation, and Molecular Modeling of Aza-Crown Ethers” (Molecules, 2021)
Read-outs that look alike come from different tables or passages of the source.

Experiments:
Assay type in all cases: cell-based
human neutrophils [1] = test: Ca2+ mobilization assay, direct effect of compounds on [Ca2+]i; conditions: Neutrophil; for Emax: % of the response induced by 5 nM fMLF, read-out: Efficacy (converted)
Excerpt: We screened 24 aza- and diaza-crown ethers with adamantyl, adamantylalkyl, aminomethylbenzoyl, and ε-aminocaproyl substituents for their Ca^2+ ionophore effects in human neutrophils. To monitor cytoplasmic Ca^2+ levels, we used the fluorescent Ca^2+ indicator Fluo-4, which is a dynamic single-wavelength fluorescent Ca^2+ indicator. Increases in fluorescence intensity (λex = 485 nm, λem = 538 nm) reflect the rise in cytoplasmic Ca^2+ concentrations ([Ca^2+]i; see Materials and Methods).
Changes in neutrophil intracellular Ca^2+ concentrations ([Ca^2+]i) were measured with a FlexStation 3 scanning fluorometer (Molecular Devices, Sunnyvale, CA, USA). Briefly, human neutrophils were suspended in HBSS^−, loaded with Fluo-4AM at a final concentration of 1.25 μg/mL, and incubated for 30 min in the dark at 37 °C. After dye loading, the cells were washed with HBSS^−, resuspended in HBSS^+, separated into aliquots, and loaded into the wells of flat-bottom, half-area well black microtiter plates (2 × 10^5 cells/well). To assess the direct effects of test compounds on Ca^2+ flux, the compounds were added to the wells (final concentration of DMSO was 1%), and changes in fluorescence were monitored (λex = 485 nm, λem = 538 nm) every 5 s for 240 s at room temperature after addition of the test compound. To evaluate inhibitory effects of the compounds on FPR1/FPR2-dependent Ca^2+ flux, the compounds were added to the wells (final concentration of DMSO was 1%) with cells (human neutrophils or FPR1/FPR2 HL60 cells). The samples were preincubated for 10 min, followed by addition of 5 nM fMLF (for human neutrophils or FPR1-HL60 cells) or 5 nM WKYMVM (for FPR2-HL60 cells). The maximum change in fluorescence, expressed in arbitrary units over baseline, was used to determine the agonist response. Responses were normalized to the response induced by 5 nM fMLF or 5 nM WKYMVM, which were assigned as 100%. Curve fitting (at least five or six points) and calculation of median effective concentration values (EC50 or IC50) were performed by nonlinear regression analysis of the dose–response curves generated using Prism 7 (GraphPad Software, Inc., San Diego, CA, USA). Efficacy was determined by comparing individual responses activated by the test compounds to that induced by a positive control (5 nM fMLF), which was assigned a value of 100%.

human neutrophils [2] = test: PMA-induced ROS production (L-012 chemiluminescence); conditions: Neutrophil, 200 nM PMA, N.A. = no activity at < 50 µM
Excerpt: To evaluate if the crown ethers could also disrupt GPCR-independent functional activity, we evaluated the effects of these compounds on phorbol 12-myristate 13-acetate (PMA)-stimulated reactive oxygen species (ROS) production. […] A representative concentration-dependent response for the inhibition of PMA-stimulated neutrophil ROS production by compound 15 is shown in Figure 2B. Since ROS production in neutrophils also requires increased [Ca^2+]i, the results again confirm that the impact of these compounds on Ca^2+ flux kinetics can alter neutrophil function.
ROS production was determined by monitoring L-012-enhanced chemiluminescence, which represents a sensitive and reliable method for detecting superoxide anion (O2^−.) production. Human neutrophils were resuspended at 2 × 10^5 cells/mL in HBSS^+ supplemented with 40 µM L-012. Cells (100 µL) were aliquoted into wells of 96-well flat-bottomed microtiter plates containing test compounds at different concentrations (final DMSO concentration of 1%). Cells were preincubated for 10 min, and 200 nM PMA was added to each well to stimulate ROS production. Luminescence was monitored for 120 min (2-min intervals) at 37 °C using a Fluroscan Ascent FL microtiter plate reader (Thermo Electron, Waltham, MA, USA). The curve of light intensity (in relative luminescence units) was plotted against time, and the area under the curve was calculated as total luminescence. The compound concentration that inhibited ROS production by 50% of the PMA-induced response (positive control) was determined by graphing the percentage inhibition of ROS production versus the logarithm of concentration of test sample (IC50). Each curve was determined using five to seven concentrations.

human neutrophils [3] = test: fMLF-induced neutrophil chemotaxis (ChemoTx chambers); conditions: 1 h, 1 nM fMLF, 60 min migration
Method: Human neutrophils were suspended in HBSS^+ containing 2% (v/v) heat-inactivated fetal bovine serum (2 × 10^6 cells/mL), and effects of the compounds on fMLF-induced chemotaxis was analyzed in 96-well ChemoTx chemotaxis chambers (Neuroprobe, Gaithersburg, MD, USA). In brief, neutrophils were preincubated with the indicated concentrations of the test compounds or DMSO for 20 min at room temperature and added to the upper wells of the ChemoTx chemotaxis chambers. The lower wells were loaded with 30 µL of HBSS^+ containing 2% (v/v) fetal bovine serum and the indicated concentrations of test sample plus 1 nM fMLF, DMSO (negative control), or 1 nM fMLF as a positive control. Neutrophils were added to the upper wells and allowed to migrate through the 5.0-µm pore polycarbonate membrane filter for 60 min at 37 °C and 5% CO2. The number of migrated cells was determined by measuring ATP in lysates of transmigrated cells using a luminescence-based assay (CellTiter-Glo; Promega, Madison, WI, USA), and luminescence measurements were converted to absolute cell numbers by comparison of the values with standard curves obtained with known numbers of neutrophils. Curve fitting (at least eight to nine points) and calculation of median effective concentration values (IC50) were performed by nonlinear regression analysis of the dose-response curves generated using Prism 5.

[4] = Homo sapiens, elevation of [Ca2+]i, Fluo-4, N.A. = no activity was found at concentration < 50 µM, read-out: EC50, effect on [Ca^2+]i flux in human neutrophils
[5] = reciprocal of EC50 in human neutrophils, inactive compounds assigned zero, read-out: 1/[EC50] (converted)

| EC50 (human neutrophils [1]; [4]) [µM] | EC50 (human neutrophils [1]; [5]) [µM] | IC50 (human neutrophils [2]) [µM] | IC50 (human neutrophils [3]) [µM] | SMILES | Emax (human neutrophils [1]; Homo sapiens) [%] |
| --- | --- | --- | --- | --- | --- |
| 9.5 ± 2.7 | 9.5 | 21.9 ± 2.2 | 6.1 ± 2.1 | O=C(N1CCOCCOCCOCCN(C(=O)C23CC4CC(CC(C4)C2)C3)CCOCC1)C12CC3CC(CC(C3)C1)C2 [Compound 14, N,N’-bis[1-oxo-1-(1-adamantyl)methyl]-4,10-diaza-18-crown-6] | 25 to 50 |
| 4.7 ± 1.5 | 4.7 | 4.1 ± 0.1 | 5.7 ± 0.2 | O=C(CC12CC3CC(CC(C3)C1)C2)N1CCOCCOCCN(C(=O)CC23CC4CC(CC(C4)C2)C3)CCOCC1 [Compound 15, N,N’-bis[2-(1-adamantyl)acetyl]-4,10-diaza-15-crown-5] | 110 |
| 6.9 ± 2.1 | 6.9 | 25.9 ± 2.7 | 5.8 ± 1.4 | O=C(N1CCOCCOCCN(C(=O)C23CC4CC(CC(C4)C2)C3)CCOCC1)C12CC3CC(CC(C3)C1)C2 [Compound 13, N,N’-bis[1-oxo-1-(1-adamantyl)methyl]-4,10-diaza-15-crown-5] | 25 to 50 |
| 15.9 ± 2.5 | 15.9 | 8.2 ± 0.1 | 5.2 ± 1.7 | O=C(CC12CC3CC(CC(C3)C1)C2)N1CCOCCOCCN(C(=O)CC23CC4CC(CC(C4)C2)C3)CCOCCOCC1 [Compound 17, N,N’-bis[2-(1-adamantyl)acetyl]-4,13-diaza-18-crown-6] | – |
